How the values were obtained:
Test in all cases: relative viability (nuclei count vs DMSO), 5 days (fraction); higher = more cells survive
NCI-H1944 = system: NCI-H1944
Summary of the method: (§1)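 Values are medians from duplicate plates. Each reflects relative viability, defined as the nuclei count of treated wells over that of vehicle wells. Lung cancer cell lines in 1536-well plates were pin-tool dosed one day after seeding with one drug alone or with a fixed anchor-drug dose plus five library-drug doses (not always all listed) in √10 steps, then fixed, stained and imaged at 4× after 5 days.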

BEN = system: BEN
Summary of the method: as §1

LCLC-97TM1 = system: LCLC-97TM1
Summary of the method: as §1

PC-3 [JPC-3] = system: PC-3 [JPC-3]
Summary of the method: as §1

LC-2-ad = system: LC-2-ad
Summary of the method: as §1

HCC-15 = system: HCC-15
Summary of the method: as §1

HCC-366 = system: HCC-366
Summary of the method: as §1

EKVX = system: EKVX
Summary of the method: as §1

HCC-827 = system: HCC-827
Summary of the method: as §1

SK-MES-1 = system: SK-MES-1
Summary of the method: as §1

COR-L23 = system: COR-L23
Summary of the method: as §1

NCI-H1755 = system: NCI-H1755
Summary of the method: as §1

NCI-H3122 = system: NCI-H3122
Summary of the method: as §1

NCI-H1993 = system: NCI-H1993
Summary of the method: as §1

COR-L 105 = system: COR-L 105
Summary of the method: as §1

SK-LU-1 = system: SK-LU-1
Summary of the method: as §1

NCI-H596 = system: NCI-H596
Summary of the method: as §1

LU99A = system: LU99A
Summary of the method: as §1

NCI-H1915 = system: NCI-H1915
Summary of the method: as §1

RERF-LC-KJ = system: RERF-LC-KJ
Summary of the method: as §1

COCC1(CO)C(=O)C2CCN1CC2 (stereo unspecified) [PRIMA-1MET] + CC1(C)CCC(c2ccc(Cl)cc2)=C(CN2CCN(c3ccc(C(=O)NS(=O)(=O)c4ccc(N[C@H](CCN5CCOCC5)CSc5ccccc5)c(S(=O)(=O)C(F)(F)F)c4)cc3)CC2)C1 [Navitoclax] (partner 0.5 µM)
relative viability (NCI-H1944; first compound 0.2 µM): 1.18
relative viability (NCI-H1944; first compound 0.6325 µM): 0.892
relative viability (NCI-H1944; first compound 6.325 µM): 1.02
relative viability (NCI-H1944; first compound 20 µM): 1.08
relative viability (BEN; first compound 0.2 µM): 0.0631
relative viability (BEN; first compound 0.6325 µM): 0.0967
relative viability (BEN; first compound 6.325 µM): 0.0571
relative viability (BEN; first compound 20 µM): 0.0562
relative viability (LCLC-97TM1; first compound 0.2 µM): 0.605
relative viability (LCLC-97TM1; first compound 2 µM): 0.644
relative viability (LCLC-97TM1; first compound 6.325 µM): 0.531
relative viability (LCLC-97TM1; first compound 20 µM): 0.0875
relative viability (PC-3 [JPC-3]; first compound 0.2 µM): 0.853
relative viability (PC-3 [JPC-3]; first compound 0.6325 µM): 0.572
relative viability (PC-3 [JPC-3]; first compound 2 µM): 0.816
relative viability (PC-3 [JPC-3]; first compound 6.325 µM): 0.794
relative viability (PC-3 [JPC-3]; first compound 20 µM): 0.708
relative viability (LC-2-ad; first compound 0.2 µM): 0.483
relative viability (LC-2-ad; first compound 0.6325 µM): 0.375
relative viability (LC-2-ad; first compound 2 µM): 0.511
relative viability (LC-2-ad; first compound 6.325 µM): 0.39
relative viability (LC-2-ad; first compound 20 µM): 0.217
relative viability (HCC-15; first compound 0.2 µM): 0.772
relative viability (HCC-15; first compound 0.6325 µM): 0.686
relative viability (HCC-15; first compound 2 µM): 0.694
relative viability (HCC-15; first compound 6.325 µM): 0.713
relative viability (HCC-15; first compound 20 µM): 0.455
relative viability (HCC-366; first compound 0.2 µM): 1.27
relative viability (HCC-366; first compound 0.6325 µM): 0.959
relative viability (HCC-366; first compound 6.325 µM): 0.981
relative viability (HCC-366; first compound 20 µM): 0.024
relative viability (EKVX; first compound 0.2 µM): 1.03
relative viability (EKVX; first compound 0.6325 µM): 0.621
relative viability (EKVX; first compound 2 µM): 0.71
relative viability (EKVX; first compound 6.325 µM): 0.938
relative viability (EKVX; first compound 20 µM): 0.777
relative viability (HCC-827; first compound 0.2 µM): 1.01
relative viability (HCC-827; first compound 0.6325 µM): 0.9
relative viability (HCC-827; first compound 2 µM): 0.721
relative viability (HCC-827; first compound 6.325 µM): 1
relative viability (HCC-827; first compound 20 µM): 1.03
relative viability (SK-MES-1; first compound 0.2 µM): 1.2
relative viability (SK-MES-1; first compound 0.6325 µM): 1.28
relative viability (SK-MES-1; first compound 2 µM): 1.19
relative viability (SK-MES-1; first compound 6.325 µM): 1.27
relative viability (SK-MES-1; first compound 20 µM): 1.23
relative viability (COR-L23; first compound 0.2 µM): 1.1
relative viability (COR-L23; first compound 0.6325 µM): 0.93
relative viability (COR-L23; first compound 2 µM): 1.06
relative viability (COR-L23; first compound 6.325 µM): 1.03
relative viability (COR-L23; first compound 20 µM): 0.023
relative viability (NCI-H1755; first compound 0.2 µM): 1.07
relative viability (NCI-H1755; first compound 0.6325 µM): 1.01
relative viability (NCI-H1755; first compound 2 µM): 0.535
relative viability (NCI-H1755; first compound 6.325 µM): 0.953
relative viability (NCI-H1755; first compound 20 µM): 1.05
relative viability (NCI-H3122; first compound 0.2 µM): 0.926
relative viability (NCI-H3122; first compound 0.6325 µM): 1.02
relative viability (NCI-H3122; first compound 2 µM): 1.05
relative viability (NCI-H3122; first compound 6.325 µM): 1.01
relative viability (NCI-H3122; first compound 20 µM): 0.976
relative viability (NCI-H1993; first compound 0.2 µM): 0.997
relative viability (NCI-H1993; first compound 0.6325 µM): 0.772
relative viability (NCI-H1993; first compound 2 µM): 0.813
relative viability (NCI-H1993; first compound 6.325 µM): 0.889
relative viability (NCI-H1993; first compound 20 µM): 1.02
relative viability (COR-L 105; first compound 0.2 µM): 0.826
relative viability (COR-L 105; first compound 0.6325 µM): 0.513
relative viability (COR-L 105; first compound 2 µM): 0.761
relative viability (COR-L 105; first compound 6.325 µM): 0.671
relative viability (COR-L 105; first compound 20 µM): 0.211
relative viability (SK-LU-1; first compound 0.2 µM): 0.848
relative viability (SK-LU-1; first compound 0.6325 µM): 1.06
relative viability (SK-LU-1; first compound 2 µM): 0.789
relative viability (SK-LU-1; first compound 6.325 µM): 1.15
relative viability (SK-LU-1; first compound 20 µM): 0.0933
relative viability (NCI-H596; first compound 0.2 µM): 1
relative viability (NCI-H596; first compound 0.6325 µM): 0.797
relative viability (NCI-H596; first compound 2 µM): 1.01
relative viability (NCI-H596; first compound 6.325 µM): 1.08
relative viability (NCI-H596; first compound 20 µM): 0.982
relative viability (LU99A; first compound 0.2 µM): 1.06
relative viability (LU99A; first compound 0.6325 µM): 0.611
relative viability (LU99A; first compound 2 µM): 0.898
relative viability (LU99A; first compound 6.325 µM): 0.752
relative viability (LU99A; first compound 20 µM): 0.101
relative viability (NCI-H1915; first compound 0.2 µM): 0.766
relative viability (NCI-H1915; first compound 0.6325 µM): 0.586
relative viability (NCI-H1915; first compound 2 µM): 0.642
relative viability (NCI-H1915; first compound 6.325 µM): 0.773
relative viability (NCI-H1915; first compound 20 µM): 0.778
relative viability (RERF-LC-KJ; first compound 0.2 µM): 1.33
relative viability (RERF-LC-KJ; first compound 0.6325 µM): 0.929
relative viability (RERF-LC-KJ; first compound 2 µM): 0.833
relative viability (RERF-LC-KJ; first compound 6.325 µM): 0.837
relative viability (RERF-LC-KJ; first compound 20 µM): 0.814

From the supplement of paper PMC10307832
